Patent US20220267734A1, “HETEROGENEOUS STEM CELL POPULATION, PREPARATION METHOD THEREFOR AND USE THEREOF” (INSTITUTE OF BASIC MEDICAL SCIENCES, CHINESE ACADEMY OF …, priority 2019, published 2022)

How the values were obtained:
[1] = tested on: human brain pericytes (HBPs); assay: q-PCR gene expression in human brain pericytes under IL-1β with or without DAPT or PDTC; assay type: cell-based; details: for gene expression of TIMP-1: among control, IL-1β and IL-1β+inhibitor groups
Description: We added interleukin 1β (IL-1β) to Transwell in vitro blood-brain barrier model, and cultured human brain microvascular endothelial cells (HBMVECs), human brain pericytes (HBPs) and human brain astrocytes (HBAs) in vitro. We verified HBMVECs, HBPs and HBAs by immunofluorescence staining. Among them, HBMVEC was stained with the antibody against vWF; HBP was stained with the antibodies against α-SMA and NG2, and vWF and GFAP antibodies; and HBA was stained with GFAP antibody (FIG. 8B). […] HBPs were treated with IL-1β for 30 minutes followed by DAPT treatment for 24 hours, and were subjected to q-PCR quantification. It could be seen from FIG. 8E that, compared with the control group, the gene expression of NOTCH3 in the IL-1β group was increased; compared with the IL-1β group, the gene expression of NOTCH3 in the IL-1β+DAPT group was reduced.

[2] = tested on: subpluripotent stem cells; assay: IRISIN-induced differentiation into beige adipocytes (UCP1 marker); assay type: cell-based; details: marker protein UCP1 by real-time fluorescence quantification and western blotting, P<0.05
Description: In recent years, a new hormone IRISIN has been discovered, which is a muscle factor secreted after exercise. It is released from the cleavage of its precursor—fibronectin III domain containing 5 (Fndc5), and is involved in the function of the muscles, the cardiovascular system, the nerves and energy metabolism. In the process of energy regulation, IRISIN is a potential regulator in sugar metabolism. In this study, we used the heterogeneous stem cell population of the present invention as seed cells, and used IRISIN to induce them to differentiate into beige adipocytes (see FIG. 9).
The adipose tissue was washed twice with D-Hanks' solution containing dual antibiotics (penicillin, streptomycin), and centrifuged at 800 rpm for 3 min. The lower layer of the liquid after washing was removed with a pipette and the adipose tissue was transferred to a new centrifugation tube of 50 ml. 0.2% collagenase P was added for digestion. The tube was incubated in a shaker at a constant temperature of 37° C. for 30 min. An appropriate amount of D-Hanks' solution was added to the digested adipose tissue, which was then filtered with a […] cell sieve to remove undigested tissue. The mixture was centrifuged at 1500 rpm for 10 min. The upper layer of grease was removed with a pipette, then the supernatant was discarded and the cell pellet was re-suspended in D-Hanks' solution and washed once. […]

[3] = IL-1β 30 minutes then inhibitor 24 hours, compared with the IL-1β group
[4] = IL-1β group compared with the control group

C[C@H](NC(=O)Cc1cc(F)cc(F)c1)C(=O)N[C@H](C(=O)OC(C)(C)C)c1ccccc1 [DAPT]
gene expression of MMP-9 [1, 3]: significantly lower
gene expression of NF-κB p65 [1, 3]: significantly reduced
gene expression of NOTCH3 [1, 3]: reduced
gene expression of TIMP-1 [1]: did not change much

N.S=C(S)N1CCCC1 [PDTC]
gene expression of NOTCH3 [1, 3]: did not change much
gene expression of TIMP-1 [1]: did not change significantly

IL-1β: interleukin 1β added to Transwell in vitro blood-brain barrier model
gene expression of MMP-9 [1, 4]: significantly increased
gene expression of NF-κB p65 [1, 4]: significantly increased
gene expression of NOTCH3 [1, 4]: increased

B1: IRISIN: muscle factor secreted after exercise, released by cleavage of Fndc5 (protein, UniProt Q8NAU1 1-191, looked up)
Irisin: MQAARGGAGRPERPGRPGRGPERERERPPGAGAASPCAAPGLPAGGATIHPGSPSAWPPRARAALRLWLGCVCFALVQADSPSAPVNVTVRHLKANSAVVSWDVLEDEVVIGFAISQQKKDVRMLRFIQEVNTTTRSCALWDLEEDTEYIVHVQAISIQGQSPASEPVLFKTPREAEKMASKNKDEVTMKE
modifications: Irisin
notes: muscle factor secreted after exercise, released by cleavage of Fndc5
differentiation into beige adipocytes [2]: induces the differentiation
